{"source": "patent US12590332B2", "about": "“Composition for diagnosing or treating kidney disease” (INJE UNIVERSITY INDUSTRY-ACADEMIC COOPERATION FOUNDATION, priority 2020, dated 2026)", "key": {"mouse podocyte cell line": {"test_system": "mouse podocyte cell line", "assay": "VSIG4 expression in podocytes (mRNA by PCR, protein by Western blot)", "assay_type": "cell-based", "description": "The mouse podocyte cell line was mixed with 10% heat inactivated fetal bovine serum, 100 IU/mL of penicillin, and […] of streptomycin in RPMI culture medium and cultured in a humid atmosphere in the presence of 5% CO2 at 37° C. To evaluate VSIG4 expression, low glucose (LG, 5.5 mM) and high glucose (HG, 55 mM), 100 nM angiotensin II, 1.0 μg/mL and 3.0 μg/mL of Adriamycin were treated. The medium in a plate in which cells are being cultured was removed and RNA was extracted using Trizol (Life Technologies, Gaithersburg, MD, USA). Reverse transcription (RT) was performed using a cDNA synthesis kit (Applied biosystems, Roche Inc., Foster City, CA, USA), mRNA expression was evaluated using polymerase chain reaction (PCR), and the expression level was corrected with β-actin or GAPDH. Proteins obtained by treating cell lysates with RIPA buffer were quantified, and 20 μg of protein was separated using 8-15% SDS-PAGE. After separation of the protein by electrophoresis using 10% SDS-PAGE, the protein was transferred to a PVDF membrane (Millipore corporation bedford, USA) using a PAGE transfer buffer (Amersham Life Science, Arlington Heights, IL) at 270 mA for 4 hours, reacted overnight at 4° C. using a blocking solution (5% skim milk), and washed with Tris buffered saline with Tween-20 (TBS-T buffer; 10 mM Tris-Cl, pH 7.8, […] Nacl, 0.05% Tween-20). […]"}, "Balb/c male mice": {"test_system": "Balb/c male mice", "assay": "Adriamycin-induced renal injury model", "conditions": "11 mg/kg once into tail vein, 4 weeks, FIG. 8"}, "HK2 cells": {"test_system": "HK2 cells", "assay": "VSIG4 expression in HK2 renal tubular cells (mRNA by PCR, protein by Western blot)", "assay_type": "cell-based, human", "conditions": "renal tubular cells treated with TGF-β (10 ng/mL recombinant); FIG. 3", "description": "HK2 cells (A TCC, Manassan, VA), immortalized human renal proximal tubule cells, were cultured by adding, in a DMEM medium (Mediatech Inc., Corning Subsidiary, Manassas, VA), 10% heat inactivated fetal bovine serum (Tissue Culture Biologicals, Tulare, CA, USA), 100 IU/mL of penicillin, and […] of streptomycin in a humid atmosphere in the presence of 5% CO2 at 37° C.\n[…] The purchased scrambled siRNA (control siRNA) and VSIG4 siRNA (z391g, Santa Cruz Biotechnology, Santa Cruz, CA) were each transfected by 200 MOI to suppress VSIG4 expression in HK2 cells.\nTo inhibit TGF-β expression, TGF-β-siRNA (Santa Cruz Biotechnology, Santa Cruz, CA, USA) was used, and 10 ng/mL of recombinant TGF-β (R&D systems, Minneapolis, MN, USA) was used for TGF-β stimulation experiment.\nThe medium in a plate in which cells are being cultured was removed and RNA was extracted using Trizol (Life Technologies, Gaithersburg, MD, USA). Reverse transcription (RT) was performed using a cDNA synthesis kit (Applied biosystems, Roche Inc., Foster City, CA, USA), mRNA expression was evaluated using polymerase chain reaction (PCR), and the expression level was corrected with β-actin or GAPDH.\nProteins obtained by treating cell lysates with RIPA buffer were quantified, and 20 μg of protein was separated using 8-15% SDS-PAGE. […]"}}, "data": [{"compound": "COc1cccc2c1C(=O)c1c(O)c3c(c(O)c1C2=O)C[C@@](O)(C(=O)CO)C[C@@H]3O[C@H]1C[C@H](N)[C@H](O)[C@H](C)O1", "note": "[Adriamycin]", "values": [{"measurement": "expression of VSIG4 mRNA and protein", "setting": "mouse podocyte cell line; podocytes, 1.0 μg/mL and 3.0 μg/mL, 12 hours and 24 hours, FIG. 9", "result": "increased over time"}, {"measurement": "VSIG4 protein expression (urine)", "setting": "Balb/c male mice; 24-hour urine, ELISA", "result": "significantly increased"}, {"measurement": "albuminuria", "setting": "Balb/c male mice; 24-hour urine", "result": "significantly increased"}, {"measurement": "VSIG4 mRNA expression in kidney tissues", "setting": "Balb/c male mice", "result": "significantly increased"}]}, {"compound": "TGF-β", "values": [{"measurement": "VSIG4 expression", "setting": "HK2 cells", "result": "increased"}]}, {"compound": "angiotensin II (DRVYIHPF; Angiotensin-2; UniProt P01019 25-32, looked up) [main substance of kidney damage used to stimulate podocytes]", "values": [{"measurement": "expression of VSIG4 mRNA and protein", "setting": "mouse podocyte cell line; podocytes stimulated with high glucose (55 mM) and angiotensin II (100 nM), compared to low glucose, FIG. 4", "result": "increased"}]}]}
